Reference: patent publication US10624887B2, “Compositions of (-)-17-(cyclobutylmethyl)morphinan-3,14,-diol” (priority 2010, dated 2020)
Entries after “also recorded” stand apart in the source; their conditions may differ. Read-outs that look alike come from different tables or passages of the source.

Legend:
[1] = system: vincristine induced painful neuropathy; assay: Vincristine induced painful neuropathy, mechanical allodynia (von Frey filaments); assay type: in vivo, Wistar rats; conditions: vincristine neuropathic rats
Text: The aim of this study was to evaluate the effect of oral administration of butorphanol in rats with vincristine induced painful neuropathy. The primary measurements were made mechanical and thermal allodynia designed to detect effects of the treatment(s) on neuropathic pain.
Wistar rats weighing 250±20 g were maintained on standard laboratory diet and having free access to tap water ad lib were employed in the present study. They were housed in the animal house and were exposed to 12 hr cycle of light and dark. The experiments were conducted in a semi-sound proof laboratory. Care of the animals was in accordance with guidelines for experimentation on animals.
The vincristine model was adapted from Authier et al (1999). Rats were injected on five alternate days (day 4, 6, 8, 10 & 12) with vincristine (200 μg/kg i.p.) using an injection volume of 2 ml/kg. […]
Mechano-allodynia was assessed using von Frey filaments. […] Both hind paws were tested for allodynia and the average of the two was recorded as data. Results were expressed in grams and determined before and 30 and 60 min after the administration of the test drugs.
The anti-nociceptive effect was plotted assessed having time (relative to dosing time point) on the x-axis and percent maximum possible effect (% MPE) on the y-axis. The results were expressed as mean±standard error of means (S.E.M.). […]

[2] = intranasal, single dose, cited from earlier work
δ-opioid receptor = δ-opioid receptor (Homo sapiens, UniProt P41143); conditions: cited from earlier work
nociception in rats = assay: Radiant heat tail flick test; assay type: in vivo, Wistar rats; conditions: butorphanol 1 mg/kg
Text: The tail flick test was first described by D'Amour and Smith (1941), and remains essentially unchanged in application. (See generally D'Amour, F. E. and Smith, D. L., “A method for determining loss of pain sensation”, J. Pharmacol. Exp. Therap., 72:74-79(1941); Dewey, D. L. and Harris, L. S., The Tail-flick test. In: S. Ehrenpreis and A. Neidle (Eds.), Methods in Narcotic Research, Marcel Dekker, Inc., New York, 1975, pp. 101-109; and Dubner, R. and Ren, K., “Assessing transient and persistent pain in animals” In: P. D. Wall and R. Melzack (Eds.), Textbook of Pain, Churchill Livingstone, London, 1999, pp. 359-369). Quite simply, the tail of a rat or mouse is exposed to radiant heat, and the latency to withdraw is determined. The basal heat intensity is set so that naive rats withdraw their tails within 2 to 3 sec. A cut-off latency of 10 sec (i.e., 3 to 4 times basal control value) is commonly employed to prevent tissue damage. […]
Three groups were employed in the present study with each group comprising of 8 animals. […] Area under the curve was calculated using a graph between % MPE and time. Area under the curve was employed as a quantitative measure of the analgesic effect of the treatments.
Nociceptive threshold was measured with the tail flick test (D'Amour and Smith, 1941). […] Tail flick latency is expressed as a percentage of the maximum possible effect (MPE): […]

κ-opioid receptors = κ-opioid receptors (Homo sapiens, UniProt P41145); conditions: cited from earlier work
Chain of κ-opioid receptors (P41145 whole entry): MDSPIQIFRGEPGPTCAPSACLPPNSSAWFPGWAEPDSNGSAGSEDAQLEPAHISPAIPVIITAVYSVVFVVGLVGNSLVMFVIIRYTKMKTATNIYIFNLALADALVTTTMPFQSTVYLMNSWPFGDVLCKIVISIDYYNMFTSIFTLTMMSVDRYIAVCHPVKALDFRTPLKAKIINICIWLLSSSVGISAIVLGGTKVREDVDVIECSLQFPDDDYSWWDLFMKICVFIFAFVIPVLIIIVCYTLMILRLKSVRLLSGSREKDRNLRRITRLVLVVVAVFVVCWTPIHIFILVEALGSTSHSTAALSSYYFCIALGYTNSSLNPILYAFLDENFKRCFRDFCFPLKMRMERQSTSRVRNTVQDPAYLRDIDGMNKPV

Chain of δ-opioid receptor (P41143 whole entry): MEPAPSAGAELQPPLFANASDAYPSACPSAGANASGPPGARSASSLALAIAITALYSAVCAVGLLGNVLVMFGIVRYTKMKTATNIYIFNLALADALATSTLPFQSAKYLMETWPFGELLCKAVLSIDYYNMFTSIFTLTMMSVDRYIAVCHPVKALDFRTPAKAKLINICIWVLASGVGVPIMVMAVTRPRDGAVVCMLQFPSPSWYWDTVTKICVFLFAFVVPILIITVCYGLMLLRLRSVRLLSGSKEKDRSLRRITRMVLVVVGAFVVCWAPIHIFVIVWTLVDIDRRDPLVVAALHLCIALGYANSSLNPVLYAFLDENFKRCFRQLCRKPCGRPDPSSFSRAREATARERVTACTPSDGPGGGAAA

Oc1ccc2c(c1)[C@@]13CCCC[C@@]1(O)[C@@H](C2)N(CC1CCC1)CC3 [butorphanol, (−)17-(Cyclobutylmethyl)morphinan-3,14-diol]
mechanical withdrawal threshold ([1]; oral 1, 3, 10, 30 mg/kg, FIG. 15): dose dependent increase; also recorded: significant increase
time of peak effect post-administration (mechanical allodynia) ([1]; oral): 30 min
dizziness ([2]; 1 mg): 46%
headache ([2]; 1 mg): 46%
nausea ([2]; 1 mg): 38%
oxygen desaturation ([2]; 1 mg): 3%
vomiting ([2]; 1 mg): 17%
dizziness ([2]; 2 mg): 58%
headache ([2]; 2 mg): 29%
nausea ([2]; 2 mg): 46%
oxygen desaturation ([2]; 2 mg): 3%
vomiting ([2]; 2 mg): 17%
activity at the δ-opioid receptor (δ-opioid receptor): preponderantly antagonist activity
tail flick latency (nociception in rats; intra-gastric, intra-ileal and intra-colonic administration, each, rats): significant increase
antinociceptive effect (area under the curve of % MPE vs time), intra-colonic versus intra-gastric or intra-ileal (nociception in rats; tail flick, FIG. 13): significantly greater antinociceptive effect
activity at κ-opioid receptors (κ-opioid receptors): pure agonist
